In ChEMBL document CHEMBL5543127, “Design, Synthesis, and Biological Evaluation of 2-Phenoxyalkylhydrazide Benzoxazole Derivatives as Quorum Sensing Inhibitors with Strong Antibiofilm Effect” (J Med Chem, 2024):
In brackets after ≈: the same amount, converted by molar mass. Activity calls are given as the source filed them. The calls are words filed in the database; no cut-off is given here.

What was measured:
[1] = tested on: Pseudomonas aeruginosa; experiment: Anti-microbial activity against Pseudomonas aeruginosa PAO1 incubated for 20 hrs By CLSI based micro-dilution method; format: functional
[2] = tested on: Pseudomonas aeruginosa; experiment: Anti-virulence activity against logarithmic growth phase Pseudomonas aeruginosa PAO1 assessed as inhibition of Rhamnolipid production at 102.4 microg/ml measured after 24 hrs; format: functional
[3] = tested on: Pseudomonas aeruginosa; experiment: Induction of anti-bacterial effect in Pseudomonas aeruginosa PAO1 assessed as synergistic effect by measuring reduction in bacterial survival in presence of ciprofloxacin at 16 to 128 microg/ml measured after 24 hrs incubation; format: functional, organism-based; conditions: dose 16-128 µg/ml
[4] = tested on: Pseudomonas aeruginosa; experiment: Induction of anti-bacterial effect in Pseudomonas aeruginosa PAO1 assessed as synergistic effect by measuring reduction in bacterial survival in presence of clarithromycin measured after 24 hrs incubation; format: functional, organism-based; conditions: dose 8-128 µg/ml
[5] = tested on: Bacillus subtilis; experiment: Anti-microbial activity against Bacillus subtilis ATCC9372 incubated for 20 hrs By CLSI based micro-dilution method; format: functional
[6] = tested on: Staphylococcus aureus; experiment: Anti-microbial activity against methicillin-resistant Staphylococcus aureus ATCC43300 incubated for 20 hrs By CLSI based micro-dilution method; format: functional
[7] = tested on: Pseudomonas aeruginosa; experiment: Antibiofilm activity against logarithmic growth phase Pseudomonas aeruginosa PAO1 assessed as inhibition of biofilm formation at 32 microg/ml incubated for 20 hrs by crystal violet staining based analysis; format: functional
[8] = Inhibition of quorum sensing system in Pseudomonas aeruginosa PAO1 at logarithmic growth period assessed as inhibition of pyocyanin production at 102.4 microg/ml incubated for 18 hrs by pyocyanin inhibition assay; conditions: dose 102.4 µg/ml
[9] = tested on: Pseudomonas aeruginosa; experiment: Inhibition of protease in logarithmic growth phase Pseudomonas aeruginosa PAO1 assessed as inhibition rate at 102.4 microg/ml measured after 32 hrs; conditions: dose 102.4 µg/ml
[10] = tested on: Escherichia coli; experiment: Anti-microbial activity against penicillin-susceptible Escherichia coli ATCC25922 incubated for 20 hrs By CLSI based micro-dilution method; format: functional
[11] = tested on: Pseudomonas aeruginosa; experiment: Induction of anti-bacterial effect in Pseudomonas aeruginosa PAO1 assessed as synergistic effect by measuring reduction in bacterial survival in presence of ciprofloxacin measured after 24 hrs incubation; format: functional, organism-based; conditions: dose 8-128 µg/ml
[12] = tested on: Pseudomonas aeruginosa; experiment: Anti-microbial activity against penicillin-susceptible Pseudomonas aeruginosa 27853 incubated for 20 hrs By CLSI based micro-dilution method; format: functional
[13] = tested on: Staphylococcus aureus; experiment: Anti-microbial activity against erythromycin-susceptible Staphylococcus aureus ATCC25923 incubated for 20 hrs By CLSI based micro-dilution method; format: functional
[14] = tested on: Pseudomonas aeruginosa; experiment: Antibiofilm activity against logarithmic growth phase Pseudomonas aeruginosa PAO1 assessed as inhibition of biofilm formation at 16 microg/ml incubated for 20 hrs by crystal violet staining based analysis; format: functional; conditions: for inhibition: dose 16.0 µg/ml
[15] = tested on: Bacillus pumilus; experiment: Anti-microbial activity against Bacillus pumilus CMCC63202 incubated for 20 hrs By CLSI based micro-dilution method; format: functional
[16] = tested on: Erythrocyte; experiment: Hemolytic activity in mouse RBC isolated from eye ball assessed as hemolysis at 256 microg/ml incubated for 1 hr; format: toxicity, cell-based; conditions: dose 256 µg/ml
[17] = tested on: Pseudomonas aeruginosa; experiment: Induction of anti-bacterial effect in Pseudomonas aeruginosa PAO1 assessed as synergistic effect by measuring reduction in bacterial survival in presence of ciprofloxacin at 128 microg/ml measured after 24 hrs incubation relative to control; format: functional; conditions: dose 128 µg/ml
[18] = tested on: Pseudomonas aeruginosa; experiment: Induction of anti-bacterial effect in Pseudomonas aeruginosa PAO1 assessed as synergistic effect by measuring reduction in bacterial survival in presence of clarithromycin at 16 to 128 microg/ml measured after 24 hrs incubation; format: functional, organism-based; conditions: dose 16-128 µg/ml
[19] = tested on: Pseudomonas aeruginosa; experiment: Antibacterial activity against Pseudomonas aeruginosa PAO1 at logarithmic growth phase assessed as growth inhibition at 153.6 microg/ml measured upto 25 hrs by growth curve assay; format: functional, organism-based; conditions: dose 153.6 µg/ml
[20] = tested on: Pseudomonas aeruginosa; experiment: Antibacterial activity against Pseudomonas aeruginosa 27853 at logarithmic growth phase assessed as growth inhibition at 153.6 microg/ml measured upto 25 hrs by growth curve assay; format: functional, organism-based; conditions: dose 153.6 µg/ml
[21] = tested on: Pseudomonas aeruginosa; experiment: Induction of morphological changes in biofilm of Pseudomonas aeruginosa PAO1 assessed as biofilm damage at 102.4 microg/ml measured after 24 hrs by scanning electron microscopy; format: functional, organism-based; conditions: dose 102.4 µg/ml
[22] = tested on: Pseudomonas aeruginosa; experiment: Anti-bacterial effect in Pseudomonas aeruginosa PAO1 assessed as reduction in bacterial survival by measuring inhibition rate at 0.4 microg/ml measured after 24 hrs incubation relative to control; format: functional
[23] = Inhibition of quorum sensing system in Pseudomonas aeruginosa PAO1-lasB-gfp assessed as reduction in fluorescence intensity measured upto 12 hrs by GFP reporter strain assay; conditions: dose 32-128 µg/ml
[24] = tested on: Pseudomonas aeruginosa; experiment: In vivo induction of anti-bacterial effect in Pseudomonas aeruginosa PAO1 infected in Kunming mouse assessed as synergistic effect by measuring reduction in bacterial survival in presence of 15 mg/kg ciprofloxacin at 5 mg/kg, ip measured after 1 hr incubation relative to ciprofloxacin alone; format: functional, organism-based
[25] = Inhibition of quorum sensing system in Pseudomonas aeruginosa PAO1-gfp assessed as reduction in fluorescence intensity at 32 to 128 microg/ml measured upto 12 hrs by GFP reporter strain assay; conditions: dose 32-128 µg/ml
[26] = tested on: Pseudomonas aeruginosa; experiment: Induction of cell wall rupture in Pseudomonas aeruginosa PAO1 at 102.4 microg/ml measured after 24 hrs by scanning electron microscopy; format: functional, organism-based; conditions: dose 102.4 µg/ml
[27] = tested on: Pseudomonas aeruginosa; experiment: Induction of cell morphological change in Pseudomonas aeruginosa PAO1 at 102.4 microg/ml measured after 24 hrs by scanning electron microscopy; format: functional, organism-based; conditions: dose 102.4 µg/ml
[28] = tested on: Pseudomonas aeruginosa; experiment: In vivo anti-bacterial effect in Pseudomonas aeruginosa PAO1 infected in Kunming mouse assessed as reduction in bacterial survival at 25 mg/kg, ip measured after 1 hr incubation; format: functional, organism-based
[29] = Inhibition of quorum sensing system in Pseudomonas aeruginosa PAO1- rhlA-gfp assessed as reduction in fluorescence intensity measured upto 12 hrs by GFP reporter strain assay; conditions: dose 32-128 µg/ml
[30] = tested on: Pseudomonas aeruginosa; experiment: In vivo induction of anti-bacterial effect in Pseudomonas aeruginosa PAO1 infected in Kunming mouse assessed as synergistic effect by measuring reduction in bacterial survival in presence of 15 mg/kg ciprofloxacin at 25 mg/kg, ip measured after 1 hr incubation; format: functional, organism-based
[31] = Inhibition of quorum sensing system in Pseudomonas aeruginosa PAO1-pqsA-gfp assessed as reduction in fluorescence intensity measured upto 12 hrs by GFP reporter strain assay; conditions: dose 32-128 µg/ml
[32] = tested on: Pseudomonas aeruginosa; experiment: Inhibition of swarming movement of Pseudomonas aeruginosa PAO1 assessed as movement state of bacterial clusters after 24 hrs by swarming motility assay; format: functional, organism-based; conditions: dose 25.6-102.4 µg/ml

| Structure (SMILES) | MIC [1] | Activity [3] | Activity [4] | MIC [5] | MIC [6] | inhibition at 32 µg/mL [7] | inhibition [8] | inhibition [9] | MIC [10] | Activity [11] | MIC [12] | MIC [13] | inhibition [14] | MIC [15] | Activity [16] | Activity [17] | Activity [18] | Activity [19] | Activity [20] | Activity [21] | also measured |
| --- | --- | --- | --- | --- | --- | --- | --- | --- | --- | --- | --- | --- | --- | --- | --- | --- | --- | --- | --- | --- | --- |
| O=C(CCCCOc1cccc(F)c1)NNc1nc2ccccc2o1 | > 512 µg/mL | Active | Dose-Dependent Effect | > 512 µg/mL | > 512 µg/mL | > 25.4% | Active | inactive | > 512 µg/mL | Dose-Dependent Effect | 512 µg/mL (≈ 1490 µM) | 512 µg/mL (≈ 1490 µM) | Active | > 512 µg/mL | Non-Toxic | >90% | Active |  |  |  | inhibition at 102.4 µg/mL [2]: 52.1% |
| CCCCCCCCCCC(=O)N/N=c1\sc2ccccc2n1C | > 512 µg/mL | Active | Dose-Dependent Effect | > 512 µg/mL | > 512 µg/mL | > 25.4% |  | > 20% | > 512 µg/mL | Dose-Dependent Effect | > 512 µg/mL | > 512 µg/mL | Active | > 512 µg/mL | Non-Toxic | >90% | Active | inactive | inactive |  |  |
| O=C(CCCCOc1ccc(F)cc1)NNc1nc2ccccc2o1 | > 512 µg/mL | Active | Dose-Dependent Effect | > 512 µg/mL | > 512 µg/mL | > 25.4% | 53.6% | inactive | > 512 µg/mL | Dose-Dependent Effect | 512 µg/mL (≈ 1490 µM) | > 512 µg/mL | Active | > 512 µg/mL | Non-Toxic | >90% | Active |  |  |  |  |
| CC[C@H]1OC(=O)[C@H](C)[C@@H](O[C@H]2C[C@@](C)(OC)[C@@H](O)[C@H](C)O2)[C@H](C)[C@@H](O[C@@H]2O[C@H](C)C[C@H](N(C)C)[C@H]2O)[C@](C)(O)C[C@@H](C)CN(C)[C@H](C)[C@@H](O)[C@]1(C)O [AZITHROMYCIN] | 256 µg/mL (≈ 342 µM) |  |  | 0.25 µg/mL (≈ 0.334 µM) | 256 µg/mL (≈ 342 µM) |  |  |  | 128 µg/mL (≈ 171 µM) |  | 16 µg/mL (≈ 21.4 µM) | 0.25 µg/mL (≈ 0.334 µM) |  | 0.25 µg/mL (≈ 0.334 µM) |  |  |  |  |  | Active |  |
| O=C(O)c1cn(C2CC2)c2cc(N3CCNCC3)c(F)cc2c1=O [CIPROFLOXACIN] |  |  |  |  |  |  |  |  |  |  |  |  |  |  |  |  |  |  |  |  | inhibition at 0.4 µg/mL [22]: 42% |
| O=C(COc1ccc(F)cc1)NNc1nc2ccccc2o1 | 512 µg/mL (≈ 1700 µM) | Active | Dose-Dependent Effect | 512 µg/mL (≈ 1700 µM) | > 512 µg/mL | > 76.6% | 43.6% | 10% | > 512 µg/mL | Dose-Dependent Effect | 512 µg/mL (≈ 1700 µM) | > 512 µg/mL |  | > 512 µg/mL | Non-Toxic | >90% | Active | inactive | inactive | Active | inhibition [23]: Dose-Dependent Effect; Activity [24]: Active; inhibition [25]: Dose-Dependent Effect; Activity [26]: inactive; Activity [27]: inactive; Activity [28]: inactive; inhibition [29]: Dose-Dependent Effect; Activity [30]: Active; inhibition [31]: Dose-Dependent Effect; inhibition at 16 µg/mL [14]: > 50%; inhibition [32]: Dose-Dependent Effect |
